# Results reported in patent US20040175782A1, “Biotransformation of compounds using non-prokaryotic microalgae” (TETHYS RESEARCH LLC, priority 2003, published 2004).
# Experiments:
# Platymonas = experiment: growth (cell counts) of microalgae in the presence of precursor compound; assay type: cell-based, Platymonas sp.; settings: 100 μg/ml, cell counts on days 0, 2, 4 and 7, relative to growth controls
# Description: (§1) Three 15 ml cultures of each of the microalgae listed in Table III above were grown in 30 ml flasks. Growth control cultures contained algae and medium only. Growth control cultures in the presence of solvent contained algae, medium, and 0.06 ml of methanol, the solvent chosen for the precursor compound. Experimental cultures contained algae, medium, and 0.06 ml of a 25 mg/ml solution of (S)-(−)-3-(Benzyloxycarbonyl)-4-oxazolidinecarboxylic acid (precursor compound) dissolved in methanol, yielding a final concentration of 100 μg/ml. Cell counts were performed using a haemocytometer on days 0, 2, 4 and 7.
# Chlorella = experiment: as above; assay type: cell-based, Chlorella minutisima; settings: 100 μg/ml, cell counts on days 0, 2, 4 and 7, relative to growth controls
# Description: as §1
# as §1, with “VIII” for “III”, “Precursor 2.” for “the precursor compound.”, “tert-butyl[S-(R*-R*)]-(−)-(1-oxiranyl-2-phenylethylcarbamate)” for “(S)-(−)-3-(Benzyloxycarbonyl)-4-oxazolidinecarboxylic acid”, “concentration in the culture medium” for “concentration”
# Botrydium = experiment: as above; assay type: cell-based; settings: 100 μg/ml, cell counts on days 0, 2, 4 and 7, relative to growth controls
# Description: as §1
# Chlamydomonas = experiment: as above; assay type: cell-based, Chlamydomonas reinhardtii; settings: 100 μg/ml, cell counts on days 0, 2, 4 and 7, relative to growth controls
# Description: as §1
# Phaeodactylum = experiment: as above; assay type: cell-based, Phaeodactylum tricornutum; settings: 100 μg/ml, cell counts on days 0, 2, 4 and 7, relative to growth controls
# Description: as §1
# as §1, with “VIII” for “III”, “Precursor 2.” for “the precursor compound.”, “tert-butyl[S-(R*-R*)]-(−)-(1-oxiranyl-2-phenylethylcarbamate)” for “(S)-(−)-3-(Benzyloxycarbonyl)-4-oxazolidinecarboxylic acid”, “concentration in the culture medium” for “concentration”
# [1] = system: Chlamydomonas reinhardtii; experiment: final biotransformation culture, 7 days in the presence of precursor; assay type: cell-based; settings: 200 μg/ml precursor, starting cell concentration 2.2 × 10^7
# Description: (§2) Table V below lists each microalgae in the final panel, its starting cell concentration, the concentration of precursor compound in the growth medium, the starting and final cell count, and the method of separation of the resulting biomass from the culture supernatant. The final panel of algal strains were grown for 7 days under the conditions listed in Table III above in the presence of the precursor compound prior to separation of the resulting biomass from the culture supernatant. Cell counts were not determined in every case for the strains listed in Table V. Table X below lists each microalgae in the final panel, its starting cell concentration, the concentration of precursor compound in the growth medium, the starting and final cell count, and the method of separation of the resulting biomass from the culture supernatant. The final panel of algal strains was grown for 7 days under the conditions listed in Table VIII above in the presence of Precursor 2 prior to separation of the resulting biomass from the culture supernatant.
# Chlorella minutisima = experiment: as above; assay type: cell-based; settings: 100 μg/ml precursor, starting cell concentration 1.52 × 10^6
# Description: as §2
# Cryptomonas ovata = experiment: as above; assay type: cell-based; settings: 200 μg/ml precursor, starting cell concentration not determined
# Description: as §2
# Euglena gracilis = experiment: as above; assay type: cell-based; settings: 100 μg/ml precursor, starting cell concentration not determined
# Description: as §2
# Olithodiscus sp. = experiment: as above; assay type: cell-based; settings: 50 μg/ml precursor, starting cell concentration 1.09 × 10^6
# Description: as §2
# [2] = system: Phaeodactylum tricornutum; experiment: as above; assay type: cell-based; settings: 200 μg/ml precursor, starting cell concentration 1.18 × 10^6
# Description: as §2
# Scenedesmus obliquus = experiment: as above; assay type: cell-based; settings: 200 μg/ml precursor, starting cell concentration 6.38 × 10^6
# Description: as §2
# Chloromonas rosae = experiment: as above; assay type: cell-based; settings: 100 μg/ml precursor, starting cell concentration 1.75 × 10^5
# Description: (§3) Table V below lists each microalgae in the final panel, its starting cell concentration, the concentration of precursor compound in the growth medium, the starting and final cell count, and the method of separation of the resulting biomass from the culture supernatant. The final panel of algal strains were grown for 7 days under the conditions listed in Table III above in the presence of the precursor compound prior to separation of the resulting biomass from the culture supernatant.
# Cryptocrysis rubens = experiment: as above; assay type: cell-based; settings: 200 μg/ml precursor, starting cell concentration not determined
# Description: as §3
# Moromastix sp. = experiment: as above; assay type: cell-based; settings: 200 μg/ml precursor, starting cell concentration 6.16 × 10^5
# Description: as §3
structure (smiles),measurement,setting,value
"O=C(O)[C@@H]1COCN1C(=O)OCc1ccccc1 [precursor compound, (S)-(−)-3-(Benzyloxycarbonyl)-4-oxazolidinecarboxylic acid]",effect on growth of Platymonas,Platymonas,causing cell death
same,effect on growth of Chlorella,Chlorella,increased growth relative to the growth controls
same,effect on growth of Chlorella,Chlorella; listed as Precursor 2 used in Example 1,negatively affected
same,effect on growth of Botrydium,Botrydium,increased growth relative to the growth controls
same,effect on growth of Chlamydomonas,Chlamydomonas,"moderate, but not severe decreases in growth relative to the growth controls"
same,effect on growth of Phaeodactylum,Phaeodactylum,"moderate, but not severe decreases in growth relative to the growth controls"
same,Final Cell Concentration,[1],1.58 × 10^9
same,Final Cell Concentration,Chlorella minutisima,1.08 × 10^7
same,Final Cell Concentration,Cryptomonas ovata,1.3 × 10^5
same,Final Cell Concentration,Euglena gracilis,6.6 × 10^5
same,Final Cell Concentration,Olithodiscus sp.,1.3 × 10^6
same,Final Cell Concentration,[2],4.08 × 10^6
same,Final Cell Concentration,Scenedesmus obliquus,2.12 × 10^7
same,Final Cell Concentration,Chloromonas rosae,1.13 × 10^6
same,Final Cell Concentration,Cryptocrysis rubens,3.09 × 10^6
same,Final Cell Concentration,Moromastix sp.,7.4 × 10^5
